# Test system: C. albicans Gu5
row,SMILES,MIC50
1,"CC[C@H](C)[C@H](NC(=O)[C@H](CCCCN)NC(=O)[C@H](CCCCN)NC(=O)[C@H](C)NC(=O)[C@H](CC(C)C)NC(=O)[C@H](C)NC(=O)[C@H](C)NC(=O)[C@H](CC(C)C)NC(=O)[C@H](C)NC(=O)[C@H](CCCCN)NC(=O)[C@H](CC(C)C)NC(=O)[C@H](CC(N)=O)NC(=O)[C@@H](NC(=O)[C@H](CCCCN)NC(=O)CNC(=O)[C@H](CC(C)C)NC(=O)[C@H](CC(C)C)NC(=O)[C@H](Cc1ccc(O)cc1)NC(=O)CNC(=O)[C@H](C)N)[C@@H](C)CC)C(=O)N[C@@H](CC(C)C)C(N)=O [TP10-NH2, transportan 10, reference compound]",100 µM
2,"CC[C@H](C)[C@H](NC(=O)[C@H](CCCCN)NC(=O)[C@H](CCCCN)NC(=O)[C@H](C)NC(=O)[C@H](CC(C)C)NC(=O)[C@H](C)NC(=O)[C@H](C)NC(=O)[C@H](CC(C)C)NC(=O)[C@H](C)NC(=O)[C@H](CCCCN)NC(=O)[C@H](CC(C)C)NC(=O)[C@H](CC(N)=O)NC(=O)[C@@H](NC(=O)[C@H](CCCCN)NC(=O)CNC(=O)[C@H](CC(C)C)NC(=O)[C@H](CC(C)C)NC(=O)[C@H](Cc1ccc(O)cc1)NC(=O)CNC(=O)[C@H](C)NC(=O)c1cn(C2CC2)c2cc(N3CCNCC3)c(F)cc2c1=O)[C@@H](C)CC)C(=O)N[C@@H](CC(C)C)C(N)=O [Compound 2, CIP-TP10-NH2]",25 µM
3,"CC[C@H](C)[C@H](NC(=O)[C@H](CCCCN)NC(=O)[C@H](CCCCN)NC(=O)[C@H](C)NC(=O)[C@H](CC(C)C)NC(=O)[C@H](C)NC(=O)[C@H](C)NC(=O)[C@H](CC(C)C)NC(=O)[C@H](C)NC(=O)[C@H](CCCCN)NC(=O)[C@H](CC(C)C)NC(=O)[C@H](CC(N)=O)NC(=O)[C@@H](NC(=O)[C@H](CCCCN)NC(=O)CNC(=O)[C@H](CC(C)C)NC(=O)[C@H](CC(C)C)NC(=O)[C@H](Cc1ccc(O)cc1)NC(=O)CNC(=O)[C@H](C)NC(=O)[C@@H](N)CSSC[C@H](NC(=O)c1cn2c3c(c(N4CCN(C)CC4)c(F)cc3c1=O)OC[C@@H]2C)C(=O)O)[C@@H](C)CC)C(=O)N[C@@H](CC(C)C)C(N)=O [Compound 5, LVXC-S-S-CTP10-NH2]",12.5 µM
4,"CC[C@H](C)[C@H](NC(=O)[C@H](CCCCN)NC(=O)[C@H](CCCCN)NC(=O)[C@H](C)NC(=O)[C@H](CC(C)C)NC(=O)[C@H](C)NC(=O)[C@H](C)NC(=O)[C@H](CC(C)C)NC(=O)[C@H](C)NC(=O)[C@H](CCCCN)NC(=O)[C@H](CC(C)C)NC(=O)[C@H](CC(N)=O)NC(=O)[C@@H](NC(=O)[C@H](CCCCN)NC(=O)CNC(=O)[C@H](CC(C)C)NC(=O)[C@H](CC(C)C)NC(=O)[C@H](Cc1ccc(O)cc1)NC(=O)CNC(=O)[C@H](C)NC(=O)[C@@H](N)CSSC[C@H](N)C(=O)N1CCN(c2cc3c(cc2F)c(=O)c(C(=O)O)cn3C2CC2)CC1)[C@@H](C)CC)C(=O)N[C@@H](CC(C)C)C(N)=O [Compound 6, CIPC-S-S-CTP10-NH2]",25 µM
5,"CC[C@H](C)[C@H](NC(=O)[C@H](CCCCN)NC(=O)[C@H](CCCCN)NC(=O)[C@H](C)NC(=O)[C@H](CC(C)C)NC(=O)[C@H](C)NC(=O)[C@H](C)NC(=O)[C@H](CC(C)C)NC(=O)[C@H](C)NC(=O)[C@H](CCCCN)NC(=O)[C@H](CC(C)C)NC(=O)[C@H](CC(N)=O)NC(=O)[C@@H](NC(=O)[C@H](CCCCN)NC(=O)CNC(=O)[C@H](CC(C)C)NC(=O)[C@H](CC(C)C)NC(=O)[C@H](Cc1ccc(O)cc1)NC(=O)CNC(=O)[C@H](C)NC(=O)c1cn2c3c(c(N4CCN(C)CC4)c(F)cc3c1=O)OC[C@@H]2C)[C@@H](C)CC)C(=O)N[C@@H](CC(C)C)C(N)=O [Compound 4, LVX-TP10-NH2]",25 µM
6,"CC[C@H](C)[C@H](NC(=O)[C@H](CCCCN)NC(=O)[C@H](CCCCN)NC(=O)[C@H](C)NC(=O)[C@H](CC(C)C)NC(=O)[C@H](C)NC(=O)[C@H](C)NC(=O)[C@H](CC(C)C)NC(=O)[C@H](C)NC(=O)[C@H](CCCCN)NC(=O)[C@H](CC(C)C)NC(=O)[C@H](CC(N)=O)NC(=O)[C@@H](NC(=O)[C@H](CCCCN)NC(=O)CNC(=O)[C@H](CC(C)C)NC(=O)[C@H](CC(C)C)NC(=O)[C@H](Cc1ccc(O)cc1)NC(=O)CNC(=O)[C@H](C)NC(=O)CCSSCCC(=O)N1CCN(c2cc3c(cc2F)c(=O)c(C(=O)O)cn3C2CC2)CC1)[C@@H](C)CC)C(=O)N[C@@H](CC(C)C)C(N)=O [Compound 3, CIP-S-S-TP10-NH2]",12.5 µM
7,"CC[C@H](C)[C@H](NC(=O)[C@H](CCCCN)NC(=O)[C@H](CCCCN)NC(=O)[C@H](C)NC(=O)[C@H](CC(C)C)NC(=O)[C@H](C)NC(=O)[C@H](C)NC(=O)[C@H](CC(C)C)NC(=O)[C@H](C)NC(=O)[C@H](CCCCN)NC(=O)[C@H](CC(C)C)NC(=O)[C@H](CC(N)=O)NC(=O)[C@@H](NC(=O)[C@H](CCCCN)NC(=O)CNC(=O)[C@H](CC(C)C)NC(=O)[C@H](CC(C)C)NC(=O)[C@H](Cc1ccc(O)cc1)NC(=O)CNC(=O)[C@H](C)NC(=O)CN1CCN(c2cc3c(cc2F)c(=O)c(C(=O)O)cn3C2CC2)CC1)[C@@H](C)CC)C(=O)N[C@@H](CC(C)C)C(N)=O [Compound 1, CIP-CH2CO-TP10-NH2]",50 µM
